In PubChem BioAssay AID624009 (Vanderbilt Specialized Chemistry Center, 2012):
Calls of active or inactive are those of the source. No rule for the calls is given here.

target: Phospholipase D2 (Homo sapiens) + Phospholipase D2 (Homo sapiens) (UniProt O14939+O14939); assay: cellular PLD2 inhibitors, cell-based, HEK293 overexpressing PLD2, Lib32, assay 1B (AID 624009); settings: HEK293 cells overexpressing PLD2, cellular PLD activity; active compounds read low; concentration not given here
Sequence (O14939 whole entry, looked up): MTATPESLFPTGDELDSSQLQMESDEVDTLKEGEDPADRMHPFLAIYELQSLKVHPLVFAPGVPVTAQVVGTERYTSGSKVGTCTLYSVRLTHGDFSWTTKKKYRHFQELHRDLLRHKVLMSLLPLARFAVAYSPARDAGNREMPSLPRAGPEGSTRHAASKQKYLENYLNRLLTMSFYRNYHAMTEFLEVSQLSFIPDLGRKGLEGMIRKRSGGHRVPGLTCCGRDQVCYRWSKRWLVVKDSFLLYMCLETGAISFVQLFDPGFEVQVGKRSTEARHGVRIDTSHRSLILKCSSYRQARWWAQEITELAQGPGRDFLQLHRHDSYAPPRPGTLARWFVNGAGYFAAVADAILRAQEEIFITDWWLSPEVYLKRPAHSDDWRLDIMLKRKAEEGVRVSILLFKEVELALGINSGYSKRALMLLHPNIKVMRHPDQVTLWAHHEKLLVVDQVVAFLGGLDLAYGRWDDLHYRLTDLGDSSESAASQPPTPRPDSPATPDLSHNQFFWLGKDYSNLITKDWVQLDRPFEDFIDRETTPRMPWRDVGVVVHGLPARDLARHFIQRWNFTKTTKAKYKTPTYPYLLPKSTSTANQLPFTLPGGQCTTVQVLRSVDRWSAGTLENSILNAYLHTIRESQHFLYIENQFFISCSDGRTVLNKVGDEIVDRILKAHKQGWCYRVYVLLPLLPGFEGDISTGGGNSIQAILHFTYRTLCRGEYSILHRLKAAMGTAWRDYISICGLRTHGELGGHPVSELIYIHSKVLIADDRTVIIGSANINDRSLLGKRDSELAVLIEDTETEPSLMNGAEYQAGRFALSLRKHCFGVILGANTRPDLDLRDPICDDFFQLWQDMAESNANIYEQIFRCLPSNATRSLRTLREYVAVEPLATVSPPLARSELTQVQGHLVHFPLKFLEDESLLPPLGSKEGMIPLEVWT
Sequence (O14939 whole entry, looked up): as above

Row | Compound | remaining activity
1 | C[C@@H](CN1CCC2(CC1)C(=O)NCN2c1cccc(F)c1)NC(=O)c1ccccc1I | 79.4% (inactive)
2 | C[C@@H](CN1CCC2(CC1)C(=O)NCN2c1cccc(F)c1)NC(=O)c1cccc(F)c1 | 53.3%
3 | C[C@@H](CN1CCC2(CC1)C(=O)NCN2c1cccc(F)c1)NC(=O)c1ccc(Cl)cc1Cl | 81.5% (inactive)
4 | O=C(NCCN1CCC2(CC1)C(=O)NCN2c1cccc(F)c1)c1ccccn1 | 99.8% (inactive)
5 | O=C(c1ccc(F)cc1)N(CCN1CCC2(CC1)C(=O)NCN2c1cccc(F)c1)C(=O)c1ccc(F)cc1 | 102% (inactive)
6 | COc1cc(C(=O)N[C@@H](C)CN2CCC3(CC2)C(=O)NCN3c2cccc(F)c2)cc(OC)c1OC | 34.8%
7 | O=C(NCCN1CCC2(CC1)C(=O)NCN2c1cccc(F)c1)c1ccc(Cl)cc1Cl | 116% (inactive)
8 | O=C(NCCN1CCC2(CC1)C(=O)NCN2c1cccc(F)c1)c1ccc(Br)cc1 | 39.2%
9 | C[C@@H](CN1CCC2(CC1)C(=O)NCN2c1cccc(F)c1)NC(=O)c1cccc(C(F)(F)F)c1 | 68.8% (inactive)
10 | C[C@@H](CN1CCC2(CC1)C(=O)NCN2c1cccc(F)c1)NC(=O)c1ccc(F)cc1 | 33.3%
11 | C[C@@H](CN1CCC2(CC1)C(=O)NCN2c1cccc(F)c1)NC(=O)c1c(F)cccc1F | 106% (inactive)
12 | C[C@@H](CN1CCC2(CC1)C(=O)NCN2c1cccc(F)c1)NC(=O)c1c(F)ccc(F)c1Cl | 94.8% (inactive)
13 | O=C(NCCN1CCC2(CC1)C(=O)NCN2c1cccc(F)c1)c1ccc(F)cc1 | 59.4%
14 | C[C@@H](CN1CCC2(CC1)C(=O)NCN2c1cccc(F)c1)NC(=O)c1cccc([N+](=O)[O-])c1 | 74.9% (inactive)
15 | O=C(NCCN1CCC2(CC1)C(=O)NCN2c1cccc(F)c1)c1cccc2c1OCO2 | 83.3% (inactive)
16 | COc1cc(C(=O)NCCN2CCC3(CC2)C(=O)NCN3c2cccc(F)c2)cc(OC)c1OC | 46.7%
17 | C[C@@H](CN1CCC2(CC1)C(=O)NCN2c1cccc(F)c1)NC(=O)c1cccc2ccccc12 | 81% (inactive)
18 | C[C@@H](CN1CCC2(CC1)C(=O)NCN2c1cccc(F)c1)NC(=O)c1ccc(Br)cc1 | 26.6%
19 | C[C@@H](CN1CCC2(CC1)C(=O)NCN2c1cccc(F)c1)NC(=O)Cc1ccc(F)cc1 | 91.1% (inactive)
20 | O=C(NCCN1CCC2(CC1)C(=O)NCN2c1cccc(F)c1)c1cccc([N+](=O)[O-])c1 | 71% (inactive)
21 | O=C(NCCN1CCC2(CC1)C(=O)NCN2c1cccc(F)c1)c1c(F)ccc(F)c1Cl | 85% (inactive)
22 | O=C(NCCN1CCC2(CC1)C(=O)NCN2c1cccc(F)c1)c1cccc(C(F)(F)F)c1 | 107% (inactive)
23 | O=C(Cc1ccc(F)cc1)NCCN1CCC2(CC1)C(=O)NCN2c1cccc(F)c1 | 92.5% (inactive)
24 | C[C@@H](CN1CCC2(CC1)C(=O)NCN2c1cccc(F)c1)NC(=O)c1ccc(F)cc1F | 48.2%
25 | O=C(NCCN1CCC2(CC1)C(=O)NCN2c1cccc(F)c1)c1ccc(F)cc1F | 111% (inactive)
26 | C[C@@H](CN1CCC2(CC1)C(=O)NCN2c1cccc(F)c1)NC(=O)c1ccc(F)c(F)c1 | 22.8%
27 | O=C(NCCN1CCC2(CC1)C(=O)NCN2c1cccc(F)c1)c1cccc2ccccc12 | 96.3% (inactive)
28 | O=C(NCCN1CCC2(CC1)C(=O)NCN2c1cccc(F)c1)c1ccccc1I | 111% (inactive)
